In article PMC11570842 (The Journal of Biological Chemistry, 2024):

Target: T1, Ubp2 (Saccharomyces cerevisiae, UniProt Q01476)
T1 sequence (Q01476 1-1272): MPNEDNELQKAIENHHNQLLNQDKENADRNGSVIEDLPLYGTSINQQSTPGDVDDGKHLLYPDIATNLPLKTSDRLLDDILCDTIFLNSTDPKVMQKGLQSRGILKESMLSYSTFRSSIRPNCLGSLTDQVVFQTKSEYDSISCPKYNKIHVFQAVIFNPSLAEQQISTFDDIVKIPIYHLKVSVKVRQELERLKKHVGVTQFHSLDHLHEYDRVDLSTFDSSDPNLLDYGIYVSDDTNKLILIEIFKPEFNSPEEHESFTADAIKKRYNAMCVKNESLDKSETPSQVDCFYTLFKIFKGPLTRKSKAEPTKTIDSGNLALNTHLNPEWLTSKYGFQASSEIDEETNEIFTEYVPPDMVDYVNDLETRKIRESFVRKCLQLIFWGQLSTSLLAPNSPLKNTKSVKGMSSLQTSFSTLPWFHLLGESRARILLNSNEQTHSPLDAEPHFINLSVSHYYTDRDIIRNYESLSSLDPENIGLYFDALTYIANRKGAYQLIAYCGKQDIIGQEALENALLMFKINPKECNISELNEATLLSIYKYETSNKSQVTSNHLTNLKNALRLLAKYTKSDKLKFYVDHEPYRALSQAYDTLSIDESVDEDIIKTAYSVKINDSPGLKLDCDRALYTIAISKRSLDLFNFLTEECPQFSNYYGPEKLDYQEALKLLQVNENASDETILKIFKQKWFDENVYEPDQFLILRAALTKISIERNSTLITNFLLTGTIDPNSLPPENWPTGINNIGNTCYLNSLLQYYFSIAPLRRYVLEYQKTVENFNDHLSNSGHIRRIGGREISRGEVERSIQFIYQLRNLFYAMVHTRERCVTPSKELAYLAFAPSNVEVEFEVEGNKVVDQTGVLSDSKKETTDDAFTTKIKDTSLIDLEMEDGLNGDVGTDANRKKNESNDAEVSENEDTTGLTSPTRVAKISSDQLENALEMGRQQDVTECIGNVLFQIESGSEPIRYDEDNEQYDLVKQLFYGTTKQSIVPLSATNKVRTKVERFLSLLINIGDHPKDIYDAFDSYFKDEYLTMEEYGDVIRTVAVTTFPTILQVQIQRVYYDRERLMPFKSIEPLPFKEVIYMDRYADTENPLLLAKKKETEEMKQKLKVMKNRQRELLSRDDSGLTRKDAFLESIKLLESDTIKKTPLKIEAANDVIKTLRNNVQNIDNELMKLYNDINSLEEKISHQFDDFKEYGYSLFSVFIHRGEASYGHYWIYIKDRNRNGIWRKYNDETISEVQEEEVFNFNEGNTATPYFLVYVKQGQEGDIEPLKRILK
Settings: 100 uM PR-619, 5 min preincubation; 0.75 uM Ub-Rho, 50 mM Tris-HCl pH 7.5, 150 mM NaCl, 30 C; activity abrogated

N#CSc1cc(SC#N)c(N)nc1N [PR-619]
fluorogenic Ub-rhodamine 110 cleavage: pan DUB inhibitor PR-619 and the cysteine alkylator iodoacetamide (IAA) abrogated Ubp2 enzymatic activity
